# Data reported in US10934297B2, “5-heteroaryl substituted indazole-3-carboxamides and preparation and use thereof” (Samumed, LLC, priority 2018, dated 2021).
# Tests used:
# [1] = system: Wnt activity (Sp5-Luc reporter in SW480 cells); test: Screening assay for Wnt activity: Sp5-Luc reporter gene assay in SW480 colon carcinoma cells; format: cell-based, human; conditions: Homo sapiens, 36 to 48 hours
# Description: The screening assay for Wnt activity is described as follows. Reporter cell lines can be generated by stably transducing cancer cell lines (e.g., colon cancer) or primary cells (e.g., IEC-6 intestinal cells) with a lentiviral construct that includes a Wnt-responsive promoter driving expression of the firefly luciferase gene.
# SW480 colon carcinoma cells were transduced with a lentiviral vector expressing luciferase with a human Sp5 promoter consisting of a sequence of eight TCF/LEF binding sites. SW480 cells stably expressing the Sp5-Luc reporter gene and a hygromycin resistance gene were selected by treatment with 150 μg/mL of hygromycin for 7 days. These stably transduced SW480 cells were expanded in cell culture and used for all further screening activities. […] For Sp5-Luc reporter gene assays, the cells were plated at 4,000 cells/well in 384-well plates with a DMEM medium containing 1% fetal bovine serum, and 1% Penicillin-Streptomycin and incubated for 36 to 48 hours at 37° C. and 5% CO2. Following incubation, 15 μl of BriteLite Plus luminescence reagent (Perkin Elmer) was added to each well of the 384-well assay plates. The plates were placed on an orbital shaker for 2 min and then luminescence was quantified using the Envision (Perkin Elmer) plate reader. Readings were normalized to DMSO only treated cells, and normalized activities were utilized for EC50 calculations using the dose-response log (inhibitor) vs. response-variable slope (four parameters) nonlinear regression feature available in GraphPad Prism 5.0 (or Dotmatics).
# DYRK1A kinase = DYRK1A kinase (Homo sapiens (Human), UniProt Q13627); test: DYRK1A kinase assay (Ser/Thr 18 peptide Z-lyte FRET); format: biochemical; conditions: read-out: EC50 (method: IC50)
# Procedure: Representative compounds were screened using the assay procedure for DYRK1A kinase activity as described below.
# This is a non-radioactive assay using fluorescence resonance energy transfer (FRET) between coumarin and fluorescein to detect kinase activity which is represented as a ratio of coumarin emission/fluorescein emission.
# The mixture was allowed to incubate with the representative compounds for one hour at room temperature. All reactions were performed in duplicate. Unphosphorylated (“0% Control”) and phosphorylated (“100% control”) forms of Ser/Thr 18 served as control reactions. Additionally, an 11-point dose-response curve of Staurosporine (1 uM top) was run to serve as a positive compound control.
# After incubation, Development Reagent A was diluted in Development Buffer then added to the reaction and allowed to further incubate for one hour at room temperature.
# GSK3β kinase = GSK3β kinase (Homo sapiens (Human), UniProt P49841); test: GSK3β kinase assay (Ser/Thr 09 peptide Z-lyte FRET); format: biochemical; conditions: read-out: EC50 (method: IC50)
# Chain of GSK3β kinase (P49841 whole entry): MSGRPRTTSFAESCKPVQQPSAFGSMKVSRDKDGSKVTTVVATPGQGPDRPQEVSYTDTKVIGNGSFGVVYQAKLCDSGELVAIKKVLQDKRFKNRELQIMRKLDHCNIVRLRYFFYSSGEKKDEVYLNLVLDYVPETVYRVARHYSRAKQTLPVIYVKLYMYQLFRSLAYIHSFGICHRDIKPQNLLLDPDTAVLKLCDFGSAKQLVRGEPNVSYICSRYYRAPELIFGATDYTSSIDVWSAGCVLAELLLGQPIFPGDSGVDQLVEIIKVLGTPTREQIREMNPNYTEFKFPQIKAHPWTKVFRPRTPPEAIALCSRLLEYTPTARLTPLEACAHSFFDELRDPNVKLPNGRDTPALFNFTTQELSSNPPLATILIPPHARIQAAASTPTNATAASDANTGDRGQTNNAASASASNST
# Procedure: Representative compounds were screened using the assay procedure for GSK3β kinase activity as described below.
# This is a non-radioactive assay using fluorescence resonance energy transfer (FRET) between coumarin and fluorescein to detect kinase activity which is represented as ratio of coumarin emission/fluorescein emission.
# The mixture is allowed to incubate with the representative compounds for one hour at room temperature. All reactions were performed in duplicate. Unphosphorylated (“0% Control”) and phosphorylated (“100% control”) forms of Ser/Thr 18 serve as control reactions.
# After incubation, diluted Development Buffer is added to the reaction and allowed to further incubate for one hour at room temperature.
# Dose-response curves are generated and inhibitory concentration (IC50) values are calculated using non-linear regression curve fit in the Dotmatics' Studies Software (Bishops Stortford, UK).
# [2] = system: SW480 colon carcinoma cells; test: Cell viability assay (CellTiter-Glo) in SW480 colon carcinoma cells; format: cell-based, human; conditions: Homo sapiens, 96 h, four days
# Procedure: Representative compounds were screened using the assay procedure to assess the effect on cell viability as described below.
# SW480 colon carcinoma cells were transduced with a lentiviral vector expressing luciferase with a human Sp5 promoter consisting of a sequence of eight TCF/LEF binding sites. SW480 cells stably expressing the Sp5-Luc reporter gene and a hygromycin resistance gene were selected by treatment with 150 μg/mL of hygromycin for 7 days. These stably transduced SW480 cells were expanded in cell culture and used for all further screening activities.
# For the Cell Viability Assays, the cells were plated at 2,000 cells/well in 384-well plates with a DMEM medium containing 1% fetal bovine serum, and 1% Penicillin-Streptomycin and incubated for […] at 37° C. and 5% CO2. Eight replicates of DMSO-treated cells served as controls and cells treated with compound were performed in duplicate.
# After incubation, 10 μL of CellTiter-Glo (Promega) was added to each well allowed to incubate for approximately 12 minutes. This reagent “results in cell lysis and generation of a luminescent signal proportional to the amount of ATP present. The amount of ATP is directly proportional to the number of cells present in culture, in agreement with previous reports. The CellTiter-Glo® Assay generates a “glow-type” luminescent signal, produced by the luciferase reaction (Promega.com)”.
# [3] = system: primary human fibroblasts derived from IPF patients (LL29 cells); test: Inhibition of the fibrotic process: αSMA staining in TGF-β1 treated LL29 fibroblasts; format: cell-based; conditions: Homo sapiens, Fibroblast, 96 h; LL29 cells, TGF-β1 20 ng/mL, 4 days, % αSMA positive cells
# Procedure: Representative compounds were screened using primary human fibroblasts (derived from IPF patients) treated with TGF-β1 to determine their ability to inhibit the fibrotic process.
# LL29 cells were plated at 1,500 cells/well in 70 μL/well F12 medium supplemented with 1% Fetal Bovine Serum. […] Wells treated with TGF-β1 and containing DMSO were used as positive control, and cells with only DMSO were negative control. […] Following incubation for 4 days, SYTOX green nucleic acid stain (Life Technologies [Thermo Fisher Scientific]) was added to the wells at a final concentration of 1 μM and incubated at room temperature for 30 min.
SMILES,EC50 [1] [nM],IC50 (DYRK1A kinase) [nM],IC50 (GSK3β kinase) [nM],EC50 [2] [nM],EC50 [3] [nM]
"CN1CCC(n2cc(-c3ccc4[nH]nc(C(=O)Nc5ccc(OC(F)F)cc5)c4c3)cn2)CC1 [Compound 58, N-(4-(Difluoromethoxy)phenyl)-5-(1-(1-methylpiperidin-4-yl)-1H-pyrazol-4-yl)-1H-indazole-3-carboxamide]",1500,53,3020,328,5140
"O=C(Nc1ccc(F)cc1)c1n[nH]c2ccc(-c3nnc4n3CCNC4)cc12 [Compound 53, N-(4-Fluorophenyl)-5-(5,6,7,8-tetrahydro-[1,2,4]triazolo[4,3-a]pyrazin-3-yl)-1H-indazole-3-carboxamide]",1840,27,1,> 10000,> 10000
"Cc1ncc(-c2ccc3[nH]nc(C(=O)NC4CCN(CC(C)(C)F)CC4)c3c2)n1C [Compound 42, 5-(1,2-Dimethyl-1H-imidazol-5-yl)-N-(1-(2-fluoro-2-methylpropyl)piperidin-4-yl)-1H-indazole-3-carboxamide]",–,28,29,–,–
"CN1CCC(NC(=O)c2n[nH]c3ccc(-c4cc(C(F)(F)F)nn4C)cc23)CC1 [Compound 29, 5-(1-Methyl-3-(trifluoromethyl)-1H-pyrazol-5-yl)-N-(1-methylpiperidin-4-yl)-1H-indazole-3-carboxamide]",> 10000,> 10000,> 10000,9240,> 10000
"Cn1cc(-c2cc3c(C(=O)Nc4ccc(CN5CCOCC5)cc4)n[nH]c3cc2F)cn1 [Compound 77, 6-Fluoro-5-(1-methyl-1H-pyrazol-4-yl)-N-(4-(morpholinomethyl)phenyl)-1H-indazole-3-carboxamide]",411,4,26,2830,291
"C[C@H]1C[C@H](NC(=O)c2n[nH]c3ccc(-c4cnn(C)c4)cc23)CCN1CC(C)(C)F [Compound 44, N-((2S,4R)-1-(2-fluoro-2-methylpropyl)-2-methylpiperidin-4-yl)-5-(1-methyl-1H-pyrazol-4-yl)-1H-indazole-3-carboxamide]",–,7,7,–,–
"CC(C)(C)n1cc(-c2ccc3[nH]nc(C(=O)N[C@H]4CC[C@H](CN5CC(F)C5)CC4)c3c2)cn1 [Compound 25, 5-(1-(tert-Butyl)-1H-pyrazol-4-yl)-N-((1R,4R)-4-((3-fluoroazetidin-1-yl)methyl)cyclohexyl)-1H-indazole-3-carboxamide]",> 10000,618,788,6020,1890
"O=C(Nc1ccc(F)cc1)c1n[nH]c2ccc(-c3cnn(C4CNC4)c3)cc12 [Compound 47, 5-(1-(Azetidin-3-yl)-1H-pyrazol-4-yl)-N-(4-fluorophenyl)-1H-indazole-3-carboxamide]",4580,190,674,> 10000,5210
"O=C(Nc1ccc(OC(F)F)cc1)c1n[nH]c2ccc(-c3cnn(C4CCOCC4)c3)cc12 [Compound 62, N-(4-(Difluoromethoxy)phenyl)-5-(1-(tetrahydro-2H-pyran-4-yl)-1H-pyrazol-4-yl)-1H-indazole-3-carboxamide]",2280,3920,> 10000,> 10000,3100
"O=C(Nc1ccc(OC(F)F)cc1)c1n[nH]c2ccc(-c3cnc4n3CCNC4)cc12 [Compound 64, N-(4-(Difluoromethoxy)phenyl)-5-(5,6,7,8-tetrahydroimidazo[1,2-a]pyrazin-3-yl)-1H-indazole-3-carboxamide]",937,16,21,1700,1530
"Cn1cc(-c2cc3c(C(=O)Nc4ccc(CN5CC(F)C5)cc4)n[nH]c3cc2F)cn1 [Compound 67, 6-Fluoro-N-(4-((3-fluoroazetidin-1-yl)methyl)phenyl)-5-(1-methyl-1H-pyrazol-4-yl)-1H-indazole-3-carboxamide]",549,9,35,1000,150
"Cn1cc(-c2cc3c(C(=O)Nc4ccc(CN5CCC(F)(F)CC5)cc4)n[nH]c3cc2F)cn1 [Compound 76, N-(4-((4,4-Difluoropiperidin-1-yl)methyl)phenyl)-6-fluoro-5-(1-methyl-1H-pyrazol-4-yl)-1H-indazole-3-carboxamide]",1290,107,302,6200,174
"CC(C)(F)CN1CCC(n2cc(-c3ccc4[nH]nc(C(=O)Nc5ccc(OC(F)F)cc5)c4c3)cn2)CC1 [Compound 61, N-(4-(difluoromethoxy)phenyl)-5-(1-(1-(2-fluoro-2-methylpropyl)piperidin-4-yl)-1H-pyrazol-4-yl)-1H-indazole-3-carboxamide]",> 10000,9940,9370,> 10000,9
"O=C(Nc1ccc(OC(F)F)cc1)c1n[nH]c2ccc(-c3cnn(C4CCNCC4F)c3)cc12 (stereo not drawn) [Compound 57, N-(4-(Difluoromethoxy)phenyl)-5-(1-(3-fluoropiperidin-4-yl)-1H-pyrazol-4-yl)-1H-indazole-3-carboxamide]",1090,1050,5380,570,597
"Cn1cc(-c2cc(Cl)c3[nH]nc(C(=O)NC4CCC(F)(F)CC4)c3c2)cn1 [Compound 17, 7-Chloro-N-(4,4-difluorocyclohexyl)-5-(1-methyl-1H-pyrazol-4-yl)-1H-indazole-3-carboxamide]",> 10000,> 10000,> 10000,> 10000,1200
"O=C(Nc1ccc(F)cc1)c1n[nH]c2ccc(-c3cnc4n3CCNC4)cc12 [Compound 52, N-(4-Fluorophenyl)-5-(5,6,7,8-tetrahydroimidazo[1,2-a]pyrazin-3-yl)-1H-indazole-3-carboxamide]",> 10000,11,11,–,–
